According to paper PMC4848466, “Insights into the activation mechanism of class I HDAC complexes by inositol phosphates” (Nature Communications, 2016):

Key:
Format in all cases: biochemical
[1] = molecular target: T1, HDAC3:SMRT complex (Homo sapiens, UniProt O15379); assay: Activation of HDAC3:SMRT deacetylase activity by inositol phosphates (BOC-Lys-AMC assay); details: BOC-Lys-AMC assay; one-site binding fit of HDAC activity vs inositol phosphate concentration; read-out: Kdapp (apparent Kd from activation titration)
T1 construct: Full-length HDAC3, and residues 350–480 of SMRT were cloned into pcDNA3 vectors; residues 350–480 of SMRT were cloned into pcDNA3 vectors; FLAG tag with TEV protease cleavage site (cleaved yes); made in house; host or cells: HEK293F cells (co-transfection, pcDNA3)
T1 sequence (O15379 whole entry, the tested form may be a part): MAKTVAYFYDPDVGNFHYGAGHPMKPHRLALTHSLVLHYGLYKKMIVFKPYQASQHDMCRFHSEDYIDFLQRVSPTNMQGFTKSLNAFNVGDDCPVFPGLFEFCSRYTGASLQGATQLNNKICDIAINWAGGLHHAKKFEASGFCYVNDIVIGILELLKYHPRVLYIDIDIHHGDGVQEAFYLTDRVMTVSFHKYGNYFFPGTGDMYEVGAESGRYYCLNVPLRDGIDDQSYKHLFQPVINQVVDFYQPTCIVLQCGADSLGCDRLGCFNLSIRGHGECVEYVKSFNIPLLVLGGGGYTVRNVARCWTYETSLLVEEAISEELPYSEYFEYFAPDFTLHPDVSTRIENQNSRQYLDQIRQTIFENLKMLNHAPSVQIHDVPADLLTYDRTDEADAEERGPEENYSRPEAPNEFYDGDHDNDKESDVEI
T1 sequence (Q9Y618 350-480, further chain): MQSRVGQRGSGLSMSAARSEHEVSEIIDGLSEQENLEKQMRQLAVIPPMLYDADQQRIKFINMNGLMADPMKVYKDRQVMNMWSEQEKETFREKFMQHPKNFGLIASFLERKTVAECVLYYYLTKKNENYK
Experimental: (§1) To understand the stereochemical basis underlying the activation of HDAC3 by inositol phosphates we investigated the ability of a range of inositol phosphates and derivatives to enhance the activity of HDAC3 in deacetylase assays. To achieve this we used an assay based on the complex of HDAC3 with an extended SMRT construct which is stable in the absence of inositol phosphate.
(§2) HDAC activity of the protein complex was measured using an HDAC assay with a BOC-Lys-AMC substrate. 50 nM HDAC3:SMRT or 50 nM HDAC1:MTA1 was incubated with 100 μM BOC-Lys-AMC substrate in a final volume of 50 μl buffer A (50 mM Tris pH 7.5, 50 mM NaCl, 5% Glycerol), in a black 96-well plate for 30 min at 37 °C.
(§3) To test the ability of inositol phosphates and derivatives to activate the complex, 50 nM HDAC3:SMRT (which had been stripped of its endogenous co-purified inositol phosphate) or 50 nM HDAC1:MTA1 was incubated with inositol phosphate or analogue for 30 min at 37 °C before the HDAC activity was measured. All measurements were performed in triplicate and data analysed using GraphPad Prism (version 6.0, GraphPad Software, Inc).

[2] = molecular target: T2, HDAC3:SMRT complex (Homo sapiens, UniProt O15379+Q9Y618); assay: as above
T2 construct: Full-length HDAC3, and residues 350–480 of SMRT were cloned into pcDNA3 vectors; residues 350–480 of SMRT were cloned into pcDNA3 vectors; FLAG tag with TEV protease cleavage site (cleaved yes); made in house; host or cells: HEK293F cells (co-transfection, pcDNA3)
T2 sequence (O15379 whole entry, the tested form may be a part): as the sequence (O15379 whole entry, the tested form may be a part) above
T2 sequence (Q9Y618 350-480): as the sequence (Q9Y618 350-480, further chain) above
Experimental: as §1, §2, §3

[3] = molecular target: T3, HDAC1:MTA1 complex (Homo sapiens, UniProt Q13330+Q13547); assay: Activation of HDAC1:MTA1 deacetylase activity by inositol phosphates (BOC-Lys-AMC assay)
T3 construct: Full-length HDAC1 and residues 162–354 of MTA1 were cloned into pcDNA3 vectors; residues 162–354 of MTA1 were cloned into pcDNA3 vectors; FLAG tag with TEV protease cleavage site (cleaved yes); made in house; host or cells: HEK293F cells (co-transfection, pcDNA3)
T3 sequence (Q13547 whole entry, the tested form may be a part): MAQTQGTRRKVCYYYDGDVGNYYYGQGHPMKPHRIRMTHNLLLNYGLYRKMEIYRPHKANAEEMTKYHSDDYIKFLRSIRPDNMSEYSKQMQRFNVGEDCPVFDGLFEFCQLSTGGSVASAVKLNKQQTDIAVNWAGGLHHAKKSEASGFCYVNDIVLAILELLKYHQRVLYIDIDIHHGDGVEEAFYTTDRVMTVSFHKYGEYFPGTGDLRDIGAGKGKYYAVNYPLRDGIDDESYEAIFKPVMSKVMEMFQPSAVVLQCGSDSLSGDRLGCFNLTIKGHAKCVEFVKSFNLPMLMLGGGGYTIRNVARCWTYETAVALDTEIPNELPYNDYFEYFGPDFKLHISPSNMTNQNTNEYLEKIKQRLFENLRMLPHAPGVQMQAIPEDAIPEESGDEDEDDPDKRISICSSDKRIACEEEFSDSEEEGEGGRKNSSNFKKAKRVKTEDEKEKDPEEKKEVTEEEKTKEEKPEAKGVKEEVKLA
T3 sequence (Q13330 162-354): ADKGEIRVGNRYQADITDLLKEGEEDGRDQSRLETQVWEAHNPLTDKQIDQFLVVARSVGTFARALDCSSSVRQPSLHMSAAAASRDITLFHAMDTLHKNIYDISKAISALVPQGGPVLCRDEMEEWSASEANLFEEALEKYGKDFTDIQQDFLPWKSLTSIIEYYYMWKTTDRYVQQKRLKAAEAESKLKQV
Experimental: as §2, §3

[4] = molecular target: T4, HDAC1:MTA1 (Homo sapiens, UniProt Q13330+Q13547); assay: Michaelis-Menten enzyme kinetics on Caliper EZ Reader with H4K16ac peptide; details: H4 12–18K16ac peptide; in the presence of the inositol phosphate
T4 construct: Full-length HDAC1 and residues 162–354 of MTA1 were cloned into pcDNA3 vectors; residues 162–354 of MTA1 were cloned into pcDNA3 vectors; FLAG tag with TEV protease cleavage site (cleaved yes); made in house; host or cells: HEK293F cells (co-transfection, pcDNA3)
T4 sequence (Q13547 whole entry, the tested form may be a part): as the sequence (Q13547 whole entry, the tested form may be a part) above
T4 sequence (Q13330 162-354): as the sequence (Q13330 162-354) above
Text: (§4) To explore further the differences between the two complexes we established a more physiological, real-time kinetic assay using substrates based on the tails of histones H4 and H3. The peptides tested were; H4 12–18(K16ac), H3 23–29(K27ac) and H3 6–12(K9ac). […] HDAC3:SMRT is most catalytically active against H3 23–29(K27ac) (Supplementary Fig. 7), whereas HDAC1:MTA1 is most catalytically active against H4 12–18(K16ac) (Fig. 4d). In both cases an approximate 3-fold greater kcat is observed for the preferred versus non-preferred substrate, in the absence of inositol phosphate. […] The net effect of both inositol phosphates tested was between a two and fivefold increase in catalytic efficiency (kcat/Km) (Fig. 4c,d, Supplementary Fig. 7).
(§5) Michaelis–Menten kinetics were determined using a HDAC assay on the Caliper EZ Reader II system (Caliper Life Sciences, http://www.caliperls.com). To assess the effect of inositol phosphate, 20 nM HDAC3:SMRT or 80 nM HDAC1:MTA1 were pre-mixed with InsP6 before dilution and addition of fluorescein-labelled H4K16Ac substrate. Reactions were carried out in duplicate in 30 μl reaction volumes, performed at room temperature in 50 mM Tris pH 7.5, 50 mM NaCl, 5% glycerol. Data was analysed using GraphPad Prism (version 6.0).

[5] = molecular target: T5, D99A HDAC1 mutant (Homo sapiens, UniProt Q13330+Q13547, D99A); assay: Deacetylase activity of D99A HDAC1 mutant (electrophoretic mobility shift assay, caliper platform); details: addition of InsP6
T5 construct: Full-length HDAC1 and residues 162–354 of MTA1 were cloned into pcDNA3 vectors; residues 162–354 of MTA1 were cloned into pcDNA3 vectors; FLAG tag with TEV protease cleavage site (cleaved yes); made in house
T5 sequence (Q13547 whole entry D99A, the tested form may be a part): as the sequence (Q13547 whole entry, the tested form may be a part) above, with D99A counted along it
T5 sequence (Q13330 162-354): as the sequence (Q13330 162-354) above
Experimental: Figure 5 Inhibition of HDAC1:MTA1 by a novel peptide-based inhibitor. (a) Inhibition curve of HDAC1:MTA1 by the histone H4 peptide H4K16Hx. (b)The position of H4K16Hx (pink) bound to the active site of HDAC1 (purple). The sidechain of HDAC1 residue D99 undergoes a significant rearrangement (indicated by arrow) to coordinate binding of the peptide (apo-HDAC1 shown in grey). […] HDAC assays were performed using an electrophoretic mobility shift assay on the caliper platform. Error bars indicate±s.e.m. (n=3).

[6] = molecular target: HDAC3:SMRT (Homo sapiens, UniProt O15379+Q9Y618); assay: Michaelis-Menten enzyme kinetics on Caliper EZ Reader with H4K16ac peptide; parameters: Full-length HDAC3, and residues 350–480 of SMRT were cloned into pcDNA3 vectors; residues 350–480 of SMRT were cloned into pcDNA3 vectors; FLAG tag with TEV protease cleavage site (cleaved yes); made in house; host or cells: HEK293F cells (co-transfection, pcDNA3); details: H4 12–18K16ac peptide; in the presence of the inositol phosphate
HDAC3:SMRT, sequence (O15379 whole entry, the tested form may be a part): as the sequence (O15379 whole entry, the tested form may be a part) above
HDAC3:SMRT, sequence (Q9Y618 350-480): as the sequence (Q9Y618 350-480, further chain) above
Text: as §4, §5

O=P(O)(O)O[C@H]1[C@H](OP(=O)(O)O)[C@@H](OP(=O)(O)O)[C@H](OP(=O)(O)O)[C@@H](OP(=O)(O)O)[C@H]1OP(=O)(O)O [InsP6, inositol hexaphosphate]
Kd [1]: 0.6 µM | HDAC3 activation relative to maximal Ins(1,4,5,6)P4-stimulated activity ([2]; BOC-Lys-AMC assay, titration / maximal activation): same degree as Ins(1,4,5,6)P4 | increase in apparent affinity compared with Ins(1,4,5,6)P4 ([2]; ratio of apparent Kd values): 16 fold | activation of HDAC1:MTA1 complex [3]: can be activated | Kd ([3]; read-out: Kdapp (apparent Kd from activation titration)): 4 µM | kcat [4]: 1.01 s⁻¹ | rescue of deacetylase activity of D99A mutant [5]: activity is not rescued | kcat [6]: 2.59 s⁻¹
